This assay concerns Mouse Acetylcholine-Bromide-Induced Abdominal Constriction. Kind of assay: Mouse Acetylcholine-Bromide-Induced Abdominal Constriction Assay. It counts as in vivo. To be noted: p.o. 30 minutes before 5.5 mg/kg i.p. acetylcholine bromide, ten minute observation; for % Inhibition 30 mg Kg (percent inhibition of writhing, % analgesia): at least 20 animals per group; for ED50: Mus musculus, po, four doses, probit analysis, read-out: ED50 (that dose which inhibits writhing by 50%). How it is done: Mouse Acetylcholine-Bromide-Induced Abdominal Constriction Assay
The mouse acetylcholine-induced abdominal constriction assay, as described by Collier et al. in Brit. J. Pharmacol. Chemother, 32: 295-310, 1968, with minor modifications was one test used to assess analgesic potency. The test drugs or appropriate vehicle were administered p.o. and 30 minutes later the animals received an i.p. injection of 5.5 mg/kg acetylcholine bromide (Matheson, Coleman and Bell, East Rutherford, N.J.). The mice where then placed in groups of four into glass bell jars and observed for a ten minute observation period for the occurrence of a writhe which is defined as a wave of constriction and elongation passing caudally along the abdominal wall, accompanied by a twisting of the trunk and followed by extension of the hind limbs. The percent inhibition of writhing (equated to % analgesia) was calculated as follows: The % inhibition of writhing, i.e., % analgesia is equal to the difference between the number of control animals writhing and the number of drug-treated animals writhing times 100 divided by the number of control animals writhing.
At least 20 animals were used for control and in each of the drug treated groups. Four doses were used to determine each dose response curve and ED50 (that dose which inhibits writhing by 50%). The ED50 values and their 95% fiducial limits were determined by a computer assisted probit analysis.
(In general: In writhing tests, fewer writhes than in controls are read as antinociception.)

In the case of `c1ccc(C2CCC3CCCN32)cc1` (stereo not drawn) [Example 1, Hexahydro-3-phenyl-1H-pyrrolizine], the “% Inhibition 30 mg Kg (percent inhibition of writhing, % analgesia)” value is 100% and the ED50 stood at 5.7 mg/kg.
`Brc1ccccc1C1CCC2CCCN21` (single isomer, unassigned) [2f (diasteriomer B), 3-(2-bromophenyl)hexahydro-1H-pyrrolizine]: the “% Inhibition 30 mg Kg (percent inhibition of writhing, % analgesia)” value was found to be 100% and the ED50 was 8.7 mg/kg.
For the compound `Brc1ccccc1C1CCC2CCCN21` (single isomer, unassigned) [2f (diasteriomer A), 3-(2-bromophenyl)hexahydro-1H-pyrrolizine], the “% Inhibition 30 mg Kg (percent inhibition of writhing, % analgesia)” value was 60%.
Same read-out and setting: to `Cc1ccc(C2CCC3CCCN32)cc1` (stereo not drawn) [Example 3d, Hexahydro-3-(4-methylphenyl)-1H-pyrrolizine] belongs 100%.

One may read the ED50 as the dose that gives a 50% effect, or the effect in half of the subjects.

These data come from patent US4800207A, “Hexahydropyrrolizine compounds useful as analgesics” (McNeilab, Inc., priority 1987, dated 1989).
